Measurements: patent US9487520B2, “Coelenterazine derivatives and methods of using same” (PROMEGA CORPORATION, priority 2010, dated 2016)

Tests used:
Jurkat cells = experiment: Measuring metabolically active cells using quinone coelenterazine derivatives; assay type: cell-based; details: two-fold serial dilutions of Jurkat cells; stocks 50 μM (40) and 100 μM (50); 30 minutes at 37° C.; Oplophorus luciferase detection reagent
From the text: Viable cells maintain a metabolically active state that is inevitably lost when cells are damaged. Upon entering the living cells, the quinone coelenterazine is reduced to a coelenterazine derivative that is a substrate for a coelenterazine-utilizing luciferase, e.g., Oplophorus or Renilla luciferase. Conversion of the quinone coelenterazine is proportional to the number of metabolically active cells, and therefore can be measured quantitatively by monitoring light produced by luciferase reaction.
Two-fold serial dilutions of Jurkat cells were prepared in PBS, and 50 μl per well transferred to wells in 96-well plates. Compounds 40 and 50 were diluted in PBS to make 50 μM and 100 μM stocks, respectively. 10 μl of prepared compound stocks were added to the cells, and the cells were placed into 37° C., 5% CO2 incubator. Following 30 minutes incubation, the cells were removed from incubator, cooled at room temperature for 10 minutes, and 50 μl of Oplophorus luciferase detection reagent added directly to the wells. The samples were mixed, incubated at room temperature for 20 minutes, and luminescence measured.

caspase-3 [1] = target: T1, caspase-3 (Homo sapiens, UniProt P42574); experiment: Caspase-3 detection with z-DEVD-coelenterazine-h and Renilla luciferase; assay type: biochemical; details: 25 μM substrate, 25 U/ml caspase-3, 3.25 ug/ml Renilla luciferase, measured over 110 minutes
T1 sequence (P42574 29-175 limits assumed): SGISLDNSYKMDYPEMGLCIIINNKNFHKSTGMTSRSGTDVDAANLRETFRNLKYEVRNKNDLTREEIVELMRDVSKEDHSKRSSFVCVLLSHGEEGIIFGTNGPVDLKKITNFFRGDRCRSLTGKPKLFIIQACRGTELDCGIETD
T1 sequence (P42574 176-277 limits assumed): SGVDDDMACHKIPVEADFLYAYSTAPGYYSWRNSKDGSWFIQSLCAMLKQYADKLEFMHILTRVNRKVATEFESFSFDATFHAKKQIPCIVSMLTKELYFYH
Procedure: Compound 21 (50 μM) was combined with Renilla luciferase (6.5 μg/ml, Renilla-GST fusion) in 50 mM HEPES buffer pH 7.2, 2 mM DTT, and 0.5% CHAPS and incubated for 20 minutes to remove any free coelenterazine derivatives that may be substrates for Renilla luciferase. Purified caspase-3 enzyme (50 U/ml) or buffer control was added in a 1:1 volume ratio for final concentrations of 25 μM Z-DEVD-coelenterazine h derivative substrate, 25 U/ml caspase-3 and 3.25 ug/ml luciferase. Luminescence was measured over 110 minutes.

caspase-3 [2] = target: T1, caspase-3; experiment: Caspase 3 assay using Oplophorus luciferase variant 9B8 opt; assay type: biochemical; details: 23.5 μM substrate, OgLuc 9B8 opt lysate, with caspase-3
Procedure: (§1) An Oplophorus luciferase (OgLuc) variant, 9B8 opt, was used in a bioluminescent assay using a pro-coelenterazine substrate comprising the DEVD caspase-3 cleavage sequence. Purified caspase-3 enzyme was mixed with an E. coli lysate sample expressing the variant 9B8 opt, which was purified using the HALOLINK™ Resin (Promega Corp.) according to manufacturer's instructions, and diluted 10-fold in a buffer containing 100 mM MES pH 6.0, 1 mM CDTA, 150 mM KCl, 35 mM thiourea, 2 mM DTT, 0.25% TERGITOL® NP-9 (v/v), 0.025% MAZU®, with or without 23.5 μM z-DEVD-coelenterazine-h in 100 mM HEPES pH 7.5. The caspase-3 enzyme was incubated with the lysate sample for 3 hrs at room temperature, and luminescence detected on a Turner MODULUS™ luminometer at various time points. A sample containing only bacterial lysate and a sample containing only caspase-3 were used as controls. Three replicates were used.

caspase-3 [3] = experiment: as above; assay type: biochemical; details: 23.5 μM substrate, OgLuc 9B8 opt lysate, no caspase-3
Procedure: as §1

increase in luminescence relative to control samples that did not contain caspase (caspase-3 [1]) | luminescence, + caspase (caspase-3 [2]; 5.0 min) | luminescence, + caspase (caspase-3 [2]; 15.3 min) | luminescence, + caspase (caspase-3 [2]; 29.9 min) | luminescence, + caspase (caspase-3 [2]; 60.9 min) | luminescence, + caspase (caspase-3 [2]; 190.3 min) | luminescence, − caspase (caspase-3 [3]; 5.0 min) | luminescence, − caspase (caspase-3 [3]; 15.3 min) | luminescence, − caspase (caspase-3 [3]; 29.9 min) | luminescence, − caspase (caspase-3 [3]; 60.9 min) | luminescence, − caspase (caspase-3 [3]; 190.3 min) | Molecule | relationship between luminescence and cell number (Jurkat cells)
– | – | – | – | – | – | – | – | – | – | – | CC1=C(C)C(=O)C(C(C)(C)CC(=O)N(C)CCN(C)C(=O)Oc2c(Cc3ccco3)nc3c(Cc4ccccc4)nc(-c4ccccc4)cn23)=C(C)C1=O [Compound 40] | linear correlation between cell number and luminescence
– | – | – | – | – | – | – | – | – | – | – | CC1=C(C)C(=O)C(C(C)(C)CC(=O)N(C)CCN(C)C(=O)Oc2c(Cc3ccccc3)nc3c(Cc4ccccc4)nc(-c4ccccc4)cn23)=C(C)C1=O [Compound 50] | linear correlation between cell number and luminescence
one hundred-fold increase | 25,411 RLU | 36,906 RLU | 41,854 RLU | 43,370 RLU | 42,448 RLU | 26,023 RLU | 7,707 RLU | 4,013 RLU | 2,305 RLU | 1,155 RLU | z-DEVD-coelenterazine-h [Compound 21] | –
